Experiments:
LPA/S1P GPCR of interest = target: T1, LPA/S1P GPCR of interest (Homo sapiens, UniProt Q92633); assay: Beta-Arrestin based assay (PathHunter); format: cell-based
T1 construct: host or cells: CHO
Procedure, shortened: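 EA Parental CHO cells (DiscoverX) were transfected with FuGENE (Roche) using CMV promoter-driven DNA constructs encoding the LPA/S1P GPCR of interest fused to a ProLink tag. Beta-arrestin recruitment in agonist mode was assessed 24-48 hrs later with PathHunter kits. Tests ran in quadruplicate in white 384 well plates, and end point luminescence was fit to a 4 parameter logistic function.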

LPA1 = LPA1 (Homo sapiens, UniProt Q92633); assay: LPA1 Migration Assay (Oris); format: cell-based; parameters: host or cells: primary fibroblasts (lung, dermal), HFL-1, 3T3 and CHO cells expressing LPA1R; conditions: read-out: Cell Migration EC50
Source text: LPA1 Migration Assay Migration of primary fibroblasts (including lung, dermal), HFL-1, 3T3 and CHO cells expressing LPA1R were monitored using the Oris™ assay (Platypus Technologies, Madison, Wis.). These cells were dye (Cell Tracker Green™) loaded and serum starved for 12-24 hrs. In response to chemoattractants such as LPA and serum, the cells migrated inward in to the exclusion (detection) zone. After fixing, fluorescent cells in the detection zone were counted using a high content reader. The ability of LPA1 antagonists to inhibit cell migration is quantified by plotting cell number vs. compound concentration and curve fitting the resulting dose-response curve to a 4 parameter logistic function.

Chain of LPA1 (Q92633 whole entry): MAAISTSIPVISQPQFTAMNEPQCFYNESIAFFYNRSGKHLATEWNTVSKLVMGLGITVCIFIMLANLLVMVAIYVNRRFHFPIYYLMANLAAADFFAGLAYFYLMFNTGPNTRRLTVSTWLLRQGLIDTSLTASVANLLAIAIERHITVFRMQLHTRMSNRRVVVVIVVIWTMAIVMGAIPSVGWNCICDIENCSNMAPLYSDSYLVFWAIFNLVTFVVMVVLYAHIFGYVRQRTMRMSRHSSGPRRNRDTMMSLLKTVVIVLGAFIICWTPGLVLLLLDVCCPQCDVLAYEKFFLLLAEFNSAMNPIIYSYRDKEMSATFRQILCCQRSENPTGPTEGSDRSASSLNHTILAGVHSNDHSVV
T1 sequence (Q92633 whole entry): as above

SMILES	EC50 (LPA/S1P GPCR of interest)	EC50 (LPA1)
Cc1nsc(-c2ccc(-c3ccc(OC4(C(=O)O)CC4)cc3)cc2)c1NC(=O)O[C@H](C)c1ccccc1 [IT513]	< 50 nM	50 to 500 nM
Cc1nsc(-c2cc3sc(-c4ccc(CC(=O)O)cc4N)cc3s2)c1NC(=O)O[C@H](C)c1ccccc1 [IT182]	> 500 nM	> 500 nM
C[C@@H](OC(=O)Nc1c(-c2cc3sc(-c4ccc(C5(C(=O)O)CC5)cc4Cl)cc3s2)nnn1C)c1ccccc1 [IT390]	< 50 nM	50 to 500 nM
Cc1nsc(-c2ccc(-c3ccc(OC(C)(C)C(=O)O)c(F)c3)cc2)c1NC(=O)O[C@H](C)c1ccccc1 [IT507]	50 to 500 nM	> 500 nM
C[C@@H](OC(=O)Nc1c(C#Cc2cc(F)c(OC3(C(=O)O)CC3)c(F)c2)cnn1C)c1ccccc1 [IT311]	50 to 500 nM	50 to 500 nM
Cc1noc(-c2ccc(-c3cc(F)c(OC(C)(C)C(=O)O)c(F)c3)cc2)c1NC(=O)O[C@H](C)c1ccccc1 [IT500]	< 50 nM	50 to 500 nM
C[C@@H](OC(=O)Nc1c(-c2ccc(-c3cc(F)c(OC(C)(C)C(=O)O)c(F)c3)cc2)cnn1C)c1ccccc1 [IT503]	50 to 500 nM	> 500 nM
Cc1noc(-c2cc3sc(-c4cc(F)c(OC5(C(=O)O)CC5)c(F)c4)cc3s2)c1NC(=O)O[C@H](C)c1ccccc1 [IT488]	50 to 500 nM	50 to 500 nM
Cc1nsc(-c2ccc(-c3ccc(CC(=O)O)s3)cc2)c1NC(=O)O[C@H](C)c1ccccc1 [IT141]	> 500 nM	> 500 nM
Cc1nsc(-c2ccc(-c3cc(F)c(Oc4cccnc4C(=O)O)c(F)c3)cc2)c1NC(=O)O[C@H](C)c1ccccc1 [IT464]	< 50 nM	50 to 500 nM
C[C@@H](OC(=O)Nc1c(-c2cc3sc(-c4ccc(CC(=O)O)cc4)cc3s2)cnn1C)c1ccccc1 [IT132]	50 to 500 nM	> 500 nM
C[C@@H](OC(=O)Nc1c(-c2cc3sc(-c4ccc(C5(C(=O)O)CC5)cc4)cc3s2)nnn1C)c1ccccc1 [IT149]	< 50 nM	50 to 500 nM
Cc1noc(-c2ccc(-c3ccc(OC(C)(C)C(=O)O)c(F)c3)cc2)c1NC(=O)O[C@H](C)c1ccccc1 [IT506]	< 50 nM	50 to 500 nM
Cc1nsc(-c2cc(F)c(-c3nc4sc(C5(C(=O)O)CC5)cc4s3)cc2F)c1NC(=O)O[C@H](C)c1ccccc1 [IT201]	< 50 nM	50 to 500 nM
C[C@@H](OC(=O)Nc1c(-c2ccc(-c3ccc(Oc4ccc(F)cc4C(=O)O)cc3)cc2)cnn1C)c1ccccc1 [IT461]	< 50 nM	50 to 500 nM
C[C@@H](OC(=O)Nc1c(-c2cc3sc(-c4ccc(C5(C(=O)O)CC5)cc4Cl)cc3s2)cnn1C)c1ccccc1 [IT389]	< 50 nM	50 to 500 nM
COc1cc(CC(=O)O)ccc1-c1cc2sc(-c3cnn(C)c3NC(=O)O[C@H](C)c3ccccc3)cc2s1 [IT162]	> 500 nM	> 500 nM
C[C@@H](OC(=O)Nc1c(-c2ccc(-c3cc(F)c(OC4(C(=O)O)CC4)c(F)c3)cc2)oc2ccccc12)c1ccccc1 [IT491]	50 to 500 nM	> 500 nM
Cc1noc(-c2ccc(-c3ccc4c(c3)CC(C)(C(=O)O)O4)cc2)c1NC(=O)O[C@H](C)c1ccccc1 (some centres unmarked) [IT498]	< 50 nM	50 to 500 nM
Cc1nnn(-c2ccc(-c3cc(F)c(Oc4cccnc4C(=O)O)c(F)c3)cc2)c1NC(=O)O[C@H](C)c1ccccc1 [IT437]	< 50 nM	50 to 500 nM
Cc1cc(CC(=O)O)ccc1-c1cc2sc(-c3snc(C)c3NC(=O)O[C@H](C)c3ccccc3)cc2s1 [IT170]	50 to 500 nM	> 500 nM
C[C@@H](OC(=O)Nc1c(-c2cc3sc(-c4cc(Cl)c(C5(C(=O)O)CC5)cc4F)cc3s2)cnn1C)c1ccccc1 [IT284]	50 to 500 nM	50 to 500 nM
C[C@@H](OC(=O)Nc1c(-c2cc3sc(-c4ccc(C5(C(=O)O)CC5)c(F)c4F)cc3s2)cnn1C)c1ccccc1 [IT364]	< 50 nM	50 to 500 nM
COc1cc(CC(=O)O)ccc1-c1cc2sc(-c3nnn(C)c3NC(=O)O[C@H](C)c3ccccc3)cc2s1 [IT183]	> 500 nM	> 500 nM
C[C@@H](OC(=O)Nc1c(-c2cc3sc(-c4cnc(C5(C(=O)O)CC5)s4)cc3s2)nnn1C)c1ccccc1 [IT189]	50 to 500 nM	> 500 nM
C[C@@H](OC(=O)Nc1c(-c2cc3sc(C#CC4(C(=O)O)CC4)cc3s2)nnn1C)c1ccccc1 [IT145]	< 50 nM	> 500 nM
C[C@@H](OC(=O)Nc1c(-c2cc3sc(-c4cc(F)c(C5(C(=O)O)CC5)cc4F)cc3s2)nnn1C)c1ccccc1 [IT348]	< 50 nM	50 to 500 nM
C[C@@H](OC(=O)Nc1c(-c2cc3sc(-c4ccc(CC(=O)O)c(Cl)c4)cc3s2)nnn1C)c1ccccc1 [IT166]	50 to 500 nM	> 500 nM
